Peptide text beside a SMILES is read from it.

What is called IC50 is the concentration that inhibits the measured activity by half.

The nature of assay [1]: In vitro ability to displace [125 I]CGRP from Calcitonin gene-related peptide type receptor at 4 degrees Centigrade in rabbit lung.
Assay [2] is described as follows: In vitro ability to displace [125 I]CGRP from Calcitonin gene-related peptide type receptor at 4 degrees Celsius in rabbit porcine c+i.

For `CC(C)C[C@H](NC(=O)COCCOCCNC(=O)[C@@H](NC(=O)[C@H](CS)NC(=O)[C@@H](NC(=O)[C@H](C)NC(=O)[C@@H](NC(=O)[C@H](CC(=O)O)NC(=O)[C@H](CS)NC(=O)[C@H](C)N)[C@@H](C)O)[C@@H](C)O)C(C)C)C(=O)N[C@@H](CO)C(=O)N[C@@H](CCCNC(=N)N)C(=O)N[C@@H](CO)C(=O)NCC(=O)NCC(=O)N[C@H](C(=O)N[C@H](C(=O)N[C@@H](CCCCN)C(=O)N[C@@H](CC(N)=O)C(=O)N[C@@H](CC(N)=O)C(=O)N[C@@H](Cc1ccccc1)C(=O)N[C@H](C(=O)N1CCC[C@H]1C(=O)N[C@H](C(=O)N[C@@H](CC(N)=O)C(=O)N[C@H](C(=O)NCC(=O)N[C@@H](CO)C(=O)N[C@@H](CCCCN)C(=O)N[C@@H](C)C(=O)N[C@@H](Cc1ccccc1)C(=O)O)C(C)C)[C@@H](C)O)C(C)C)C(C)C)C(C)C`, the IC50 in assay [1] stood at 185 nM; in assay [2] it was 995 nM.
Take `CC(C)[C@H](NC(=O)CNC(=O)CNC(=O)[C@H](CO)NC(=O)[C@H](CCCN=C(N)N)NC(=O)[C@@H](NC(=O)[C@H](CCCN=C(N)N)NC(=O)[C@@H](NC(=O)[C@H](Cc1c[nH]cn1)NC(=O)[C@@H](NC(=O)[C@H](CS)NC(=O)[C@@H](NC(=O)[C@H](C)NC(=O)[C@@H](NC(=O)[C@H](CC(=O)O)NC(=O)[C@H](CS)NC(=O)[C@H](C)N)[C@@H](C)O)[C@@H](C)O)C(C)C)C(C)C)C(C)C)C(=O)N[C@H](C(=O)N[C@@H](CCCCN)C(=O)N[C@@H](CC(N)=O)C(=O)N[C@@H](CC(N)=O)C(=O)N[C@@H](Cc1ccccc1)C(=O)N[C@H](C(=O)N1CCC[C@H]1C(=O)N[C@H](C(=O)N[C@@H](CC(N)=O)C(=O)N[C@H](C(=O)NCC(=O)N[C@@H](CO)C(=O)N[C@@H](CCCCN)C(=O)N[C@@H](C)C(=O)N[C@@H](Cc1ccccc1)C(N)=O)C(C)C)[C@@H](C)O)C(C)C)C(C)C` (H-ACDTATCVHVRVRSGGVVKNNFVPTNVGSKAF-NH2): the IC50 in assay [1] is 4 nM; in assay [2], 14 nM.

The record behind these values is BindingDB's records for doi:10.1016/0960-894X(95)00078-8 (1995).
